Measured values: US20250049776A1, “AUTOPHAGY INDUCING COMPOUNDS AND USES THEREOF, IN PARTICULAR FOR A SYSTEMIC TREATMENT OF DISEASES AND CONDITIONS” (Samsara Therapeutics Inc., priority 2021, published 2025)
Structures can show the parent of a compound that is named as a salt.

Key:
[1] = test system: U2OS cell line stabling expressing RFP-eGFP-hLC3b; assay: Tandem reporter assay (autophagic flux, RFP-only puncta); type: cell-based; conditions: Homo sapiens, RFP-only puncta as percentage of DMSO-treated control, 24 hours; for activity at 1 µM: read-out: Autolysosome % DMSO activity (compound concentration of 1 μM); for activity at 10 µM: read-out: Autolysosome % DMSO activity (compound concentration of 10 μM)
Experimental: Selected compounds of this invention were also assessed for their ability to stimulate autophagy using a U20S cell line stabling expressing RFP-eGFP-hLC3b (a tandem reporter cell line). During the process of autophagy, the cargo to be degraded is first enveloped by organelles called autophagosomes. These autophagosomes then fuse with lysosomes, causing them to become acidified and their digestive enzymes to become activated. The term “autophagic flux” is used to represent the dynamic process of autophagy: autophagic flux refers to the whole process of autophagy, including autophagosome formation, maturation, fusion with lysosomes, subsequent breakdown and the release of macromolecules back into the cytosol (Zhang X J, Chen S, Huang K X, Le W D. Why should autophagic flux be assessed? Acta Pharmacol Sin. 2013 May; 34(5): 595-9. doi: 10.1038/aps.2012.184. Epub 2013 Mar. 11). Compounds that stimulate autophagic flux stimulate the dynamic process of autophagy (the whole process of autophagy).
LC3b is a protein found in the membrane of autophagosomes which has been used to generate genetic reporters of autophagy in cells. In these systems a tandem fusion of LC3b is engineered with two fluorescent proteins of different wavelengths: one which is acid sensitive (for example eGFP, which fluoresces green) and the other which is acid insensitive (for example RFP, which fluoresces red). Cells expressing RFP-eGFP-hLC3b can be examined using fluorescent microscopy: the autophagosomes present will fluoresce in both channels (either yellow in an overlay of both channels or puncta that are present in both the individual red and green channels) but the autolysosomes present will fluoresce in the RFP (red) channel only. Using a fluorescent microscope, the number of autophagosomes and autolysosomes can be counted, allowing for the monitoring of both the induction of autophagy (total puncta count) and the rate of autophagic flux (ratio of red-only to red-and-green puncta). The influence of small molecules on autophagy induction and flux can be assessed using this system by comparison to a non-treated control.
Representative Procedure: Human osteosarcoma U2OS cells stably expressing RFP-eGFP-hLC3b were seeded (10,000 cells/well) into a 96-well glass-bottom plate (Cell Carrier Ultra, Perkin Elmer) in DMEM Glutamax media (Gibco) supplemented with 10% Fetal Bovine Serum (FBS) and antibiotics (100 u/ml penicillin, 100 μg/ml streptomycin, Invitrogen), then incubated overnight in a humified atmosphere at 37° C. and 5% CO2. The cells were then treated with the compounds of interest, dissolved in DMSO, in a duplicated 5- or 10-point dose-response. 8 wells were treated with an equivalent volume of DMSO, 4 with 0.3 μM torin-1 as a positive control (MCE) and 4 wells with 0.4 μM torin-1 plus 0.2 μM bafilomycin (MCE) as a control for flux inhibition. The cells were returned to the incubator and the treatment continued for 24 hours. After treatment, the media was aspirated off and the cells fixed with a solution of 4% formaldehyde+1% glutaraldehyde (Sigma) in dPBS (plus magnesium and calcium, Gibco).
Fixation was allowed to proceed for 15 minutes at room temperature then the fixative solution discarded and replaced with PBS (Gibco) plus Hoescht 33342 ([…], Sigma). After 30 minutes the plates were imaged on an Opera Phenix confocal microscope (Perkin-Elmer) using a 40× water objective, collecting using DAPI, mCherry and GFP channels. Cells were detected based upon the staining of their nuclei with DAPI using the Harmony image analysis software (Perkin-Elmer) and the number of autophagosomes (GFP and RFP puncta) and autolysosomes (RFP only puncta) per cell were counted using the spot picking function within the software.

[2] = test system: Human osteosarcoma U20S cells; assay: Assay to measure lysosome and autolysosome formation (acidic vesicle formation, LysoView/LysoTracker staining); type: cell-based; conditions: Homo sapiens; U2OS cells, concentration of 0.8 μM; read-out: Activity (percentage increase in acidic vesicle formation over the DMSO-treated control), Table 2
How it was run: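 U2OS cells treated with compounds in DMSO for 24 h, then stained 45 min at 37 °C with 1× LysoView 633 or 50 nM LysoTracker Deep Red, with Hoechst nuclear counterstain. Live-cell fluorescence imaging at 37 °C; acidic vesicle formation judged against DMSO-treated control.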

`CCCN(C(=O)c1csc(-c2cnn(-c3ccccc3)c2)n1)[C@@H]1CCNC1` [Compound 171, (R)-2-(1-phenyl-1H-pyrazol-4-yl)-N-propyl-N-(pyrrolidin-3-yl)thiazole-4-carboxamide hydrochloride] showed an activity at 1 µM [1] of 200%, an activity at 10 µM [1] of 294% and an activation at 0.8 µM [2] of 10 to 30%.
`CC(C)N(C(=O)c1csc(-c2cnn(-c3ccccc3)c2)n1)C1CCNCC1` [Compound 163, N-isopropyl-2-(1-phenyl-1H-pyrazol-4-yl)-N-(piperidin-4-yl)thiazole-4-carboxamide hydrochloride] gave an activity at 1 µM [1] of 144%, an activity at 10 µM [1] of 187% and an activation at 0.8 µM [2] of 10 to 30%.
